Measurements reported in patent US20180327367A1, “MACROCYCLIC BROAD SPECTRUM ANTIBIOTICS” (priority 2015, published 2018).
Values after ≈ are worked out from the molar mass of the structure shown. Read-outs that look alike come from different tables or passages of the source.

Columns and labels:
[1] = system: Methicillin Resistant Staphylococcus aureus strain USA 300, NRS384; test: Minimum inhibitory concentration, broth micro-dilution (CLSI), S. aureus; type: cell-based; details: 35° C., 22 hours; for MIC: Staphylococcus aureus, MRSA / NRS 384 / USA300, 22 h
How it was run: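 CLSI broth microdilution in cation-adjusted Mueller Hinton Broth with 0.002% Tween-80; inoculum final OD600 0.0005, 22 hours at 35° C. Ten 2-fold dilutions starting at 4 μg/mL (protocol 2) or 0.5 μg/mL (protocol 3).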

[2] = system: Escherichia coli MC4100 harboring the IMP4213 (E. coli IMP); test: microbe, parasite or virus in culture; type: cell-based; details: 35° C., 22 hours; for MIC: Escherichia coli, 22 h, read-out: MIC (μg/mL) E. coli IMP, E. coli MC4100 IMP4213, increased outer-membrane permeability
How it was run: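 Top conc 4 μg/mL (protocol 2) or 0.5 μg/mL (protocol 3), 2-fold series, 10 points. Final OD600 0.0005; 22 h, 35° C. IMP4213 = permeable outer membrane.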

[3] = system: Escherichia coli ATCC 25922; test: Minimum inhibitory concentration, broth micro-dilution (CLSI), E. coli; type: cell-based; details: 35° C., 22 hours; for MIC: Escherichia coli, ATCC25922, 22 h
[4] = target: T1, SpsB (Staphylococcus aureus signal peptidase) (Staphylococcus aureus, UniProt P0A070); test: cell-based; type: biochemical; details: SpsB IC50, whole-cell S. aureus (USA300 background, overexpressing SpsB) as SpsB source; fluorogenic peptide substrate, kinetic read 30 min
T1 construct: This assay uses a suspension of Staphylococcus aureus cells as a source of SpsB instead of recombinant SpsB protein; endogenous in cells; host or cells: S. aureus, USA300 background, overexpressing SpsB (whole-cell suspension from frozen pellets)
T1 sequence (P0A070 whole entry): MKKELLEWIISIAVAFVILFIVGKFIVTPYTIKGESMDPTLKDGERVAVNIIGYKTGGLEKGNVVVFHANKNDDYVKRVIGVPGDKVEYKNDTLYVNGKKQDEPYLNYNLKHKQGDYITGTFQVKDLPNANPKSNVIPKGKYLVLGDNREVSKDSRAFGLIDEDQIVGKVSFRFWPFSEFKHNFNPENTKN
How it was run: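 Cleavage of an internally quenched (Dabcyl)βAla-KPAKAAE(Edans) peptide, added as 20 μM solution mixed 1:1 with cells, was followed for 30 min at 340/490 nm. SpsB came from a suspension of SpsB-overexpressing USA300 S. aureus in Tween-80-containing PBS buffer. Slopes plotted against 3-fold compound dilutions gave IC50.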

[5] = read-out: MIC (μg/mL) S. aureus, MRSA USA 300 NRS384
[6] = read-out: MIC (μg/mL) E. coli, E. coli ATCC 25922
[7] = MRSA USA 300 NRS384, read-out: MIC (μg/mL) S. aureus
[8] = E. coli ATCC 25922, read-out: MIC (μg/mL) E. coli

C[C@@H]1NC(=O)[C@@H](N(C)C(=O)[C@H](CCCCN)NC(=O)c2ccc(-c3ccc(Cl)cc3)cc2)c2ccc(OCCN)c(c2)-c2cc(ccc2OCCN)C[C@@H](C(=O)N[C@@H](C)C#N)NC1=O [Compound 483]
MIC [1, 5]: 2 µg/mL (≈ 2.24 µM)
MIC [2]: 0.5 µg/mL (≈ 0.559 µM)
MIC [3, 6]: 48 µg/mL (≈ 53.7 µM)
IC50 [4]: 6.8 nM

CCCCCCCCCC(=O)N[C@@H](C)C(=O)N[C@@H](CCN)C(=O)N(C)[C@@H]1C(=O)N[C@@H](C)C(=O)N[C@H](C(=O)NCC#N)Cc2ccc(OCCN)c(c2)-c2cc1ccc2OCCN [Compound 373]
MIC [1, 5]: 0.19 µg/mL (≈ 0.22 µM)
MIC [2]: 0.063 µg/mL (≈ 0.073 µM)
MIC [3, 6]: 4 µg/mL (≈ 4.63 µM)
IC50 [4]: 0.88 nM

CCCCCCCCCCCC(=O)N[C@@H](CO)C(=O)N(C)[C@@H]1C(=O)N[C@@H](C)C(=O)N[C@H](C(=O)NCC#N)Cc2ccc(OCCN)c(c2)-c2cc1ccc2OCCN [Compound 231]
MIC [1, 7]: 0.13 µg/mL (≈ 0.161 µM)
MIC [2]: 0.063 µg/mL (≈ 0.0781 µM)
MIC [3, 8]: 8 µg/mL (≈ 9.91 µM)
IC50 [4]: 0.57 nM

CCCCC1CCC(C2CCC(C(=O)N[C@@H](CCN)C(=O)N(C)[C@@H]3C(=O)N[C@@H](C)C(=O)N[C@H](C(=O)NCC#N)Cc4ccc(OCCN)c(c4)-c4cc3ccc4OCCN)CC2)CC1 (stereo partly shown) [Compound 426]
MIC [1, 7]: 0.063 µg/mL (≈ 0.0711 µM)
MIC [2]: < 0.0039 µg/mL
MIC [3, 8]: 0.19 µg/mL (≈ 0.214 µM)
IC50 [4]: 1.2 nM

CCCCCCCCc1ccc(C(=O)N[C@@H](CCNCC(=O)O)C(=O)N(C)[C@@H]2C(=O)N[C@@H](C)C(=O)N[C@H](C(=O)NCC#N)Cc3ccc(OCCN)c(c3)-c3cc2ccc3OCCN)c(C)c1 [Compound 263]
MIC [1, 7]: 0.13 µg/mL (≈ 0.14 µM)
MIC [2]: 0.023 µg/mL (≈ 0.0248 µM)
MIC [3, 8]: 2 µg/mL (≈ 2.16 µM)
IC50 [4]: 1.1 nM

CCCCc1ccc(-c2ccc(C(=O)N[C@@H](CCCCN)C(=O)N(C)[C@@H]3C(=O)N[C@@H](C)C(=O)N[C@H](C(=O)N[C@H](C)C#N)Cc4ccc(OCCN)c(c4)-c4cc3ccc4OCCN)cc2)cc1 [Compound 136]
MIC [1, 7]: 2 µg/mL (≈ 2.18 µM)
MIC [2]: 0.38 µg/mL (≈ 0.415 µM)
MIC [3, 8]: 8 µg/mL (≈ 8.73 µM)
IC50 [4]: 10 nM

CCCCc1ccc(Oc2ccc(C(=O)N[C@@H](CCN)C(=O)N(C)[C@@H]3C(=O)N[C@@H](C)C(=O)N[C@H](C(=O)NCC#N)Cc4ccc(OCCN)c(c4)-c4cc3ccc4OCCN)c(C)c2)cc1 [Compound 303]
MIC [1, 7]: 0.047 µg/mL (≈ 0.052 µM)
MIC [2]: 0.012 µg/mL (≈ 0.0133 µM)
MIC [3, 8]: 0.19 µg/mL (≈ 0.21 µM)
IC50 [4]: 0.93 nM

Cc1cc(-c2ccccc2)ccc1C(=O)N[C@@H](CCCN)C(=O)N(C)[C@@H]1C(=O)N[C@@H](C)C(=O)N[C@H](C(=O)NCC#N)Cc2ccc(OCCN)c(c2)-c2cc1ccc2OCCN [Compound 150]
MIC [1, 7]: 0.25 µg/mL (≈ 0.296 µM)
MIC [2]: 0.063 µg/mL (≈ 0.0745 µM)
MIC [3, 8]: 4 µg/mL (≈ 4.73 µM)
IC50 [4]: 0.82 nM

Cc1cc(C2CCCCCC2)ccc1C(=O)N[C@@H](CCN)C(=O)N(C)[C@@H]1C(=O)N[C@@H](C)C(=O)N[C@H](C(=O)NCC#N)Cc2ccc(OCCN)c(c2)-c2cc1ccc2OCCN [Compound 436]
MIC [1, 7]: 0.047 µg/mL (≈ 0.0552 µM)
MIC [2]: 0.0078 µg/mL (≈ 0.00915 µM)
MIC [3, 8]: 0.38 µg/mL (≈ 0.446 µM)
IC50 [4]: 0.78 nM

CCCCCCCCC(O)C(=O)NC(CO)C(=O)N(C)C1C(=O)NC(C)C(=O)NC(C(=O)NCC#N)Cc2ccc(OCCN)c(c2)-c2cc1ccc2OCCN (single isomer, unassigned) [Compound 393-P2]
MIC (μg/mL) S. aureus ([1]; MRSA USA 300 NRS384): 1 µg/mL (≈ 1.26 µM)
MIC (μg/mL) E. coli IMP ([2]; E. coli MC4100 IMP4213, increased outer-membrane permeability): 2 µg/mL (≈ 2.52 µM)
MIC (μg/mL) E. coli ([3]; E. coli ATCC 25922): >64 µg/mL
IC50 [4]: 4.7 nM

CCCCCCOc1ccc(C(=O)N[C@@H](CCN)C(=O)N(C)[C@@H]2C(=O)N[C@@H](C)C(=O)N[C@H](C(=O)NCC#N)Cc3ccc(OCCN)c(c3)-c3cc2ccc3OCCN)c(Cl)c1 [Compound 271]
MIC [1, 7]: 0.047 µg/mL (≈ 0.0536 µM)
MIC [2]: 0.016 µg/mL (≈ 0.0183 µM)
MIC [3, 8]: 0.31 µg/mL (≈ 0.354 µM)
IC50 [4]: 1.1 nM

Cc1cc(OCC2(C)CCCCC2)ccc1C(=O)N[C@@H](CCN)C(=O)N(C)[C@@H]1C(=O)N[C@@H](C)C(=O)N[C@H](C(=O)NCC#N)Cc2ccc(OCCN)c(c2)-c2cc1ccc2OCCN [Compound 289]
MIC [1, 7]: 0.031 µg/mL (≈ 0.0351 µM)
MIC [2]: 0.0078 µg/mL (≈ 0.00884 µM)
MIC [3, 8]: 0.25 µg/mL (≈ 0.283 µM)
IC50 [4]: 0.93 nM

CCCCCCCCCC(=O)NCC(=O)N[C@@H](CCN)C(=O)N(C)[C@@H]1C(=O)N[C@@H](C)C(=O)N[C@H](C(=O)NCC#N)Cc2ccc(OCCN)c(c2)-c2cc1ccc2OCCN [Compound 372]
MIC [1, 5]: 0.13 µg/mL (≈ 0.153 µM)
MIC [2]: 0.094 µg/mL (≈ 0.111 µM)
MIC [3, 6]: 8 µg/mL (≈ 9.42 µM)
IC50 [4]: 0.47 nM
